These are literature values, as cited in patent US20140366440A1, “METHOD FOR PRODUCING CLONE SEEDLINGS” (OKAYAMA PREFECTURE, priority 2009, published 2014).

In data set [1] the test system is Eucalyptus globulus elite tree. The note with it: in the presence of auxin; Sotelo and Monza, Agrociencia (2007); cited from earlier work.
Data set [2] deals with callus of a tobacco plant. The note with it: cited from earlier work.
Data set [3] deals with calluses of a Russell prairie gentian. The note with it: medium containing glutathione; cited from earlier work.
A further data set relates to calluses of a rice plant. The settings on record: medium containing glutathione; cited from earlier work.

Turning to auxin, the rooting rate in data set [1] is reported as at most 25%. As to `CCCCS(=N)(=O)CCC(N)C(=O)O` (centres unmarked) [buthionine sulfoximine (BSO), buthionine sulfoximine, reference compound], the “number of differentiation of adventitious buds per callus” value in data set [2] (addition of BSO) is on record as “remarkably increases”. With `N[C@@H](CCC(=O)N[C@@H](CS)C(=O)NCC(=O)O)C(=O)O` [glutathione], the redifferentiation of callus (in data set [3]; in the data set with calluses of a rice plant) was “promotes redifferentiation” throughout. Also, the “forming an adventitious bud from callus” value in data set [2] (addition of glutathione of 1 mM) is “inhibits”.
